# In PMC9011347, “Small-Molecule Inhibitors Targeting Lipolysis in Human Adipocytes” (Journal of the American Chemical Society, 2022):
# Target: T1, ATGL and G0S2 (Homo sapiens, UniProt Q96AD5)
# T1 construct: expressed in transfected cells; host or cells: HEK293 cells; NG-497 added to the lysates
# Experiment: Co-immunoprecipitation of ATGL and G0S2
# Assay type: binding
# Details: NG-497 40 µM, HEK293 lysates, FLAG-ATGL and His-G0S2
# Description: Fig. S2: Effect of NG-497 on the protein-protein interaction of ATGL and G0S2 investigated by co-immunoprecipitation.
# HEK293 cells were co-transfected with FLAG-tagged ATGL and His-tagged G0S2 (both human). As controls, FLAG-tagged ATGL was co-expressed with His-LacZ, and His-tagged G0S2 with empty FLAG-vector (e-FLAG). (a) Protein expression of the indicated plasmid combinations was confirmed using anti-Xpress and anti-Flag antibodies. (b) Cell lysates were incubated with anti-FLAG M2 affinity beads in the presence or absence of NG-497 (40 µM). After extensive washing, bound proteins were eluted by boiling in SDS-containing sample buffer and subjected to Western blotting analysis. His-G0S2 was exclusively […]
# Data are representative for two
# (1 picture or pasted object on this page, not shown here)
# Co-immunoprecipitation. HEK293 cells were co-transfected with the indicated plasmid combinations using Metafectene (#T020-5.0; Biontex, Germany) according to the manufacturer’s instructions. […]
# Analysis of toxicity in HepG2 hepatocytes. […] Release of LDH into the medium was analyzed using the Cytotoxicity Detection Kit PLUS (LDH) (MilliporeSigma) according to the manufacturer’s instructions. Cytotoxicity was calculated as relative LDH release as compared to fully lysed cells. […]
# T1 sequence (Q96AD5 whole entry): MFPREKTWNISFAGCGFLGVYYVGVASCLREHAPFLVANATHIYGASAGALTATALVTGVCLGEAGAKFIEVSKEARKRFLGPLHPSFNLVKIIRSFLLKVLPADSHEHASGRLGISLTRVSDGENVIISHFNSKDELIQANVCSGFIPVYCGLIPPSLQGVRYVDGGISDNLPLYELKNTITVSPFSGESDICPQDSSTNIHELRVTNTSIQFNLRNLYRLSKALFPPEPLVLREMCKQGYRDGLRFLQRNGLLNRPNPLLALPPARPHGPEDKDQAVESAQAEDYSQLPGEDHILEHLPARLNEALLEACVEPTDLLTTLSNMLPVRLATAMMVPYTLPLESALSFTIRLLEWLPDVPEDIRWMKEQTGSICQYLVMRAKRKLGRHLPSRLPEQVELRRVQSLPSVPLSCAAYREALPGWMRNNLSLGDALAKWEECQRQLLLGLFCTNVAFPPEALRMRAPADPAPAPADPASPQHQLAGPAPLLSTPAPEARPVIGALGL
# T1 sequence (P27469 whole entry partner): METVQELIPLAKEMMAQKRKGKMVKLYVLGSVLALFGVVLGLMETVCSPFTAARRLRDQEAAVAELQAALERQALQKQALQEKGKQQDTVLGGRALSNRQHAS
compound,measurement,value
CCOc1ccc(-c2cc(OC)cc(C(=O)OC(C)C)n2)cc1 [NG-497],G0S2 binding to ATGL (co-immunoprecipitation),increased G0S2 binding
